From patent US20260226035A1, “THIOCHROMAN DERIVATIVE AND PREPARATION METHOD THEREFOR AND USE THEREOF” (SHANGHAI INSTITUTE OF MATERIA MEDICA, CHINESE ACADEMY OF …, priority 2022, published 2026)
Read-outs that look alike come from different tables or passages of the source.

Columns and labels:
ERα of uterine tissue = ERα of uterine tissue (Rattus norvegicus, UniProt P06211); settings: in vivo, po
Description: HE experiment: 1) Cut the fixed uterine tissue into […] slices and place the slices in an oven for 1 hour; 2) Dewax the dried paraffin slices with conventional xylene, hydrate with gradient ethanol, and wash with distilled water; 3) Add hematoxylin to stain for 10 min to 30 min, then wash away the hematoxylin stain with running water; 4) Decolorize with 1% hydrochloric acid ethanol until the slices turn red and lighter in color, and then put them in running water to restore them to blue.

MCF-7 Tam1 cells = assay: Inhibition of tamoxifen-resistant MCF-7 Tam1 cell proliferation (CTG); assay type: cell-based; settings: Homo sapiens, MCF7:TAM1, 120 h, read-out: IC50 (nM), inhibitory activity on tamoxifen-resistant cells MCF-7 Tam1
[1] = system: MCF-7 mouse subcutaneous tumor model; assay: Growth inhibition in MCF-7 mouse subcutaneous tumor model; assay type: in vivo, mice; settings: p.o., QD; for mean tumour volume (mm^3), 21 days / TGI(%): 21 days; for TGI(%): LSZ102 15 mg/kg, Example 4 5 mg/kg
Text: Experimental reagents: fetal bovine serum (SH30070.03) (FBS, Hyclone, Logan, UT, USA); penicillin ([…]) (Sigma, St. Louis, MO, USA); streptomycin (85886) (Sigma, St. Louis, MO, USA); recombinant human insulin (91077C) (Sigma, St. Louis, MO, USA); EMEM medium (30-2003) (ATCC, Rockville, MD, USA); trypsin (15090046) (Gibco, Grand Island, NY, USA); HBSS ([…]), DMSO (D8418), PEG400 (8074851000), PEG300 (8074841000), PBS (806552), Solutol HS-15 (42966) (Sigma, St. Louis, MO, USA); Matrigel Matrix (BD Bioscience, USA); estrogen pellets (0.36 mg estradiol, 60-day release) (SE-121) (Innovative Research of America, Florida, USA); […] StarSignal Western Protein Marker (10-200 kDa) (M227-01) (GenStar, Beijing, China); Ponceau red, Tween 20, acrylamide, sodium dodecyl sulfate, PMSF (Solon, OH, USA); protein blotting membrane regeneration solution (ZN1923, Biolab, Beijing, China); protein lysis buffer (RIPA), 1.5 mol/L Tris HCl (pH 6.8), 1.5 mol/L Tris HCl (pH 8.8) (Beyotime, Shanghai, China); ECL luminescent solution (Thermo Fisher Scientific, Pittsburgh, PA, USA); […] Goat Anti-Rabbit IgG H&L (HRP) (ab6721) purchased from Abcam (Abcam, Cambridge, UK). […] Cell culture conditions: […] When the cells were fused to 90%, the old medium was discarded, and the cells were washed twice with 2 ml PBS. […] When the cells became round, 2 ml complete medium was quickly added to terminate digestion, and the cells were gently blown and collected, and centrifuged at 800 rpm, 4° C. for 5 min. The supernatant was discarded, the cells were resuspended with complete medium, cultured in bottles, and the medium was changed every other day. […] LSZ102 (15 mg/kg) group: […] LSZ-102 is a selective estrogen receptor degrader developed by Novartis in the clinical research stage and is one of the earliest oral SERDs to enter clinical research; […] The tumor inhibition efficacy of the compound was evaluated by tumor growth inhibition rate TGI (%).

MCF-7 cells = assay: Inhibition of MCF-7 cell proliferation (CTG/ATP method); assay type: cell-based; settings: for IC50: Homo sapiens, MCF7, 144 h, read-out: IC50 (nM), inhibitory activity on MCF-7 cell proliferation; for anti-tumor activity, times higher than SAR439859 / anti-tumor activity, times higher than fulvestrant: MCF-7 proliferation; for anti-tumor activity, times higher than SAR439859: vs SAR439859; for anti-tumor activity, times higher than fulvestrant: vs fulvestrant
Description: The purpose of this experiment is to determine the in vitro proliferation inhibitory effect of the compounds of the present invention on the commonly used breast cancer estrogen receptor-positive cells, MCF-7 cells, and to evaluate the in vitro activity of the compounds based on IC50. The inhibitory effect of the compounds of the present invention on the proliferation of MCF-7 cells was tested by the ATP method, specifically the CTG method. CellTiter-Glo, referred to as CTG, is a rapid homogenous detection method for determining the number of viable cells in culture by quantifying ATP. ATP is a key indicator of the metabolism of living cells. The homogenous detection makes the cell lysis and the generated luminescent signal proportional to the amount of ATP present, and the amount of ATP is directly proportional to the number of cells in the culture. The specific experimental method is as follows. […] The cells were cultured in a 37° C. incubator under 5% CO2. Cell passaging, recovery and cryopreservation were performed according to conventional methods. […] On the second day, the drug with concentration gradient was added, 10 μL per well. […] The 96-well plate was incubated in 5% CO2 at 37° C. for 6 days. 50 μL of CTG reagent was added to each well of the 96-well plate, and the plate was shaken on a shaker for 5 min, and then left at room temperature and protected from light for 10 min. 60 μL of CTG reagent was transferred to the 384-well Opti-plate. The luminescence signals were read by a multifunctional enzyme marker, and the signal intensity was used to characterize the number of viable cells. The data of each dosing group were normalized to 100% of the mean value of the control group, and the data were processed and analyzed by GraphPad Prism software.

[2] = Pharmacokinetics in rats, oral; assay type: in vivo, SD rats; settings: rat, 10 mg/kg
Description: The purpose of this experiment is to test the pharmacokinetic properties of the compounds of the present invention in rats.
The solvent is 5% DMSO+5% Solutol+90% (0.5% MC), which is a colorless and clear dosing solution. The dosing method and dosage are: oral, 10 mg/kg. SD rats were randomly divided into groups according to body weight, fasted but not watered for 12-14 hours one day before dosing, and fed 4 hours after dosing. 0.1 mL of blood was collected from each animal through the eye socket each time, anticoagulated with EDTAK2, and the collection time points were: 0, 5, 15, 30 minutes, 1, 2, 4, 6, 8, 24 hours after administration of the test compound. After blood sample collection, it was placed on ice and centrifuged within 30 minutes to separate plasma (centrifugation conditions: 5000 rpm, 10 minutes, 4° C.). It was stored at −80° C. before analysis. The concentration of compounds in rat plasma was determined by LC-MS/MS. The data acquisition and control system software was Analyst 1.5.1 software (Applied Biosystem). The peak integration method of the chromatogram sample was automatic integration; the ratio of the sample peak area to the internal standard peak area was used as an indicator and regressed with the concentration of the sample. Regression method: linear regression, weight coefficient is 1/X^2. Pharmacokinetic parameters were analyzed and processed by WinNonlin Professional v6.3 (Pharsight, USA) using non-compartmental model. Cmax is the maximum measured blood drug concentration, the area under the blood drug concentration-time curve AUC (0→t) was calculated by the trapezoidal method, and Tmax is the time when the blood drug concentration reaches the peak after administration. Experimental data are expressed as “mean±standard deviation” (Mean±SD, n≥3) or “mean” (Mean, n=2).

in vivo = settings: female, Sprague-Dawley (SD), rat, po, 10 mg/kg

Chain of ERα of uterine tissue (P06211 whole entry): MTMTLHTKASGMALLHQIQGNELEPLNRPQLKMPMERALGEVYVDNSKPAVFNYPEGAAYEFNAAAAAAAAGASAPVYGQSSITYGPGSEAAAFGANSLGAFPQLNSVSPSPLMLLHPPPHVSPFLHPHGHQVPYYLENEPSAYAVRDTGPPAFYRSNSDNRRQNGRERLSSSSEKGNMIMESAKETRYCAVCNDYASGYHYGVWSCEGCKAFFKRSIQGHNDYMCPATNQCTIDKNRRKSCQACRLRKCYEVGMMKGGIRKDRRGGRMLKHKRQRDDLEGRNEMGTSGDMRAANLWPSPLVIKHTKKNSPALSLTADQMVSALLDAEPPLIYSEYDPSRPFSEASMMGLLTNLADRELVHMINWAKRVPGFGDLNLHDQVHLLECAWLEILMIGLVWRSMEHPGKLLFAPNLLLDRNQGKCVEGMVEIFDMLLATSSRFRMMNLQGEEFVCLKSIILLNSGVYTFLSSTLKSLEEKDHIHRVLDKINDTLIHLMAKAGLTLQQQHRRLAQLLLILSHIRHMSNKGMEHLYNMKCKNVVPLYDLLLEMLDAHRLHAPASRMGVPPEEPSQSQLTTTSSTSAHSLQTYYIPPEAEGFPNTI

4-hydroxytamoxifen
Mean body weight (ERα of uterine tissue): 43.9 g

COc1cc(F)ccc1[C@@H]1CSc2cc(O)ccc2[C@@H]1c1ccc(OCCN2CC(CF)C2)cc1 (relative stereo) [Example 4, Cis-3-(4-fluoro-2-methoxyphenyl)-4-(4-(2-(3-(fluoromethyl)azetidin-1-yl)ethoxy)phenyl)-7-hydroxythiochroman]
IC50 (MCF-7 Tam1 cells): 6.84 ± 1.4 nM | mean tumour volume (mm^3), 0 day [1]: 202 mm^3 | mean tumour volume (mm^3), 21 days [1]: 332 mm^3 | TGI(%) [1]: 78%

COc1cc(F)ccc1C1CSc2cc(B(O)O)ccc2C1c1ccc(OCCN2CC(CF)C2)cc1 (stereo not drawn) [Example 10, Cis-(3-(4-fluoro-2-methoxyphenyl)-4-(4-(2-(3-(fluoromethyl)azetidin-1-yl)ethoxy)phenyl)thiochroman-7-boronic Acid]
IC50 (MCF-7 cells; MCF-7, CTG, 6 days): 1.7 nM

COc1cc(F)ccc1[C@H]1CSc2cc(O)ccc2[C@H]1c1ccc(OCCN2CC(CF)C2)cc1 [Example 18, (3S,4R)-3-(4-fluoro-2-methoxyphenyl)-4-(4-(2-(3-(fluoromethyl)azetidin-1-yl)ethoxy)phenyl-)7-hydroxythiochroman]
anti-tumor activity, times higher than SAR439859 (MCF-7 cells): 15.6 times | anti-tumor activity, times higher than fulvestrant (MCF-7 cells): 7.6 times | IC50 (MCF-7 Tam1 cells): 5.37 ± 0.42 nM | Tmax ([2]; Sprague-Dawley (SD), plasma): 3 h | half-life ([2]; Sprague-Dawley (SD), plasma): 8.92 h | MRTPO [2]: 13.4 h | AUC0-t ([2]; plasma): 1.365 µg·h/mL | Cmax ([2]; plasma): 0.198 µg/mL | concentration at 4 h (in vivo; brain): 17400 ng/g | Kp at 4 h (in vivo; brain/plasma): 14.1 | concentration at 4 h (in vivo; plasma): 1.23 µg/mL

Oc1ccc2c(c1)SC[C@H](c1cc(F)c(F)cc1F)[C@@H]2c1ccc(OCCN2CC(CF)C2)cc1 [Example 19, (3S,4R)-4-(4-(2-(3-(fluoromethyl)azetidin-1-yl)ethoxy)phenyl)-3-(2,4,5-trifluorophenyl)-7-hydroxythiochroman]
anti-tumor activity, times higher than SAR439859 (MCF-7 cells): 15.6 times | anti-tumor activity, times higher than fulvestrant (MCF-7 cells): 7.6 times

C[C@]12CC[C@@H]3c4ccc(O)cc4C[C@@H](CCCCCCCCC[S+]([O-])CCCC(F)(F)C(F)(F)F)[C@H]3[C@@H]1CC[C@@H]2O (stereo partly drawn) [Fulvestrant, reference compound]
IC50 (MCF-7 cells): 1.9 nM

CC(F)(F)c1cc(F)ccc1-c1sc2cc(O)ccc2c1Oc1ccc(/C=C/C(=O)O)cc1 [LSZ102, reference compound]
mean tumour volume (mm^3), 0 day [1]: 200 mm^3 | mean tumour volume (mm^3), 21 days [1]: 345 mm^3 | TGI(%) [1]: 75%

O=C(O)c1ccc2c(c1)CCCC(c1ccc(Cl)cc1Cl)=C2c1ccc(O[C@H]2CCN(CCCF)C2)cc1 [SAR439859, reference compound]
IC50 (MCF-7 cells): 3.9 nM
